The target in one experiment is SMARCA4 (Homo sapiens, UniProt P51532). As to the kind of experiment: HiBiT assay for protein degradation, Hela SMARCA4-HiBiT cells (A series). Particulars: Hela SMARCA4-HiBiT cells, 24 hours treatment; for DC50: read-out: SMARC A4 Hela HiBit DC50; for Dmax: read-out: SMARC A4 Hela HiBit Dmax. It is filed as cell-based. Also noted: fuse HiBiT to the carboxy terminus of SMARCA2 (Promega CS302365) or SMARCA4 (Promega CS3023225); host or cells: HeLa (CRISPR/Cas9 HiBiT knock-in). The method, boiled down: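 HeLa cells engineered by CRISPR/Cas9 to carry a HiBiT tag fused to the C-terminus of SMARCA4 (Promega CS3023225) were grown in DMEM supplemented with FBS and penicillin-streptomycin. After compound exposure, remaining SMARCA4 protein was quantified using the Nano-Glo® HiBiT Lytic Detection Assay (Promega N3050), and curves were fitted in GraphPad Prism.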

The next experiment concerns the target SMARCA2 (Homo sapiens, UniProt P51531). As to the kind of experiment: HiBiT assay for protein degradation, Hela SMARCA2-HiBiT cells (A series).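 On SMARC A2 Hela HiBit Dmax (%): 24 h compound treatment.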 Particulars: Hela SMARCA2-HiBiT cells, 24 hours treatment; for DC50: read-out: SMARC A2 Hela HiBit DC50; for Dmax: read-out: SMARC A2 Hela HiBit Dmax (%). Also noted: Hela cells were genetically modified via CRISPR/Cas9 to fuse HiBiT to the carboxy terminus of SMARCA2; host or cells: HeLa (CRISPR/Cas9 HiBiT knock-in). It is filed as cell-based. The method, boiled down:
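HeLa cells engineered by CRISPR/Cas9 to carry a HiBiT tag fused to the C-terminus of SMARCA2 (Promega CS302365) were grown in DMEM supplemented with FBS and penicillin-streptomycin. After treatment, remaining SMARCA2 protein was quantified with the Nano-Glo® HiBiT Lytic Detection Assay (Promega N3050), and curves were fitted in GraphPad Prism.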

SMILES strings stand for the structures.

Sequence of SMARCA4 (P51532 whole entry, the tested form may be a part): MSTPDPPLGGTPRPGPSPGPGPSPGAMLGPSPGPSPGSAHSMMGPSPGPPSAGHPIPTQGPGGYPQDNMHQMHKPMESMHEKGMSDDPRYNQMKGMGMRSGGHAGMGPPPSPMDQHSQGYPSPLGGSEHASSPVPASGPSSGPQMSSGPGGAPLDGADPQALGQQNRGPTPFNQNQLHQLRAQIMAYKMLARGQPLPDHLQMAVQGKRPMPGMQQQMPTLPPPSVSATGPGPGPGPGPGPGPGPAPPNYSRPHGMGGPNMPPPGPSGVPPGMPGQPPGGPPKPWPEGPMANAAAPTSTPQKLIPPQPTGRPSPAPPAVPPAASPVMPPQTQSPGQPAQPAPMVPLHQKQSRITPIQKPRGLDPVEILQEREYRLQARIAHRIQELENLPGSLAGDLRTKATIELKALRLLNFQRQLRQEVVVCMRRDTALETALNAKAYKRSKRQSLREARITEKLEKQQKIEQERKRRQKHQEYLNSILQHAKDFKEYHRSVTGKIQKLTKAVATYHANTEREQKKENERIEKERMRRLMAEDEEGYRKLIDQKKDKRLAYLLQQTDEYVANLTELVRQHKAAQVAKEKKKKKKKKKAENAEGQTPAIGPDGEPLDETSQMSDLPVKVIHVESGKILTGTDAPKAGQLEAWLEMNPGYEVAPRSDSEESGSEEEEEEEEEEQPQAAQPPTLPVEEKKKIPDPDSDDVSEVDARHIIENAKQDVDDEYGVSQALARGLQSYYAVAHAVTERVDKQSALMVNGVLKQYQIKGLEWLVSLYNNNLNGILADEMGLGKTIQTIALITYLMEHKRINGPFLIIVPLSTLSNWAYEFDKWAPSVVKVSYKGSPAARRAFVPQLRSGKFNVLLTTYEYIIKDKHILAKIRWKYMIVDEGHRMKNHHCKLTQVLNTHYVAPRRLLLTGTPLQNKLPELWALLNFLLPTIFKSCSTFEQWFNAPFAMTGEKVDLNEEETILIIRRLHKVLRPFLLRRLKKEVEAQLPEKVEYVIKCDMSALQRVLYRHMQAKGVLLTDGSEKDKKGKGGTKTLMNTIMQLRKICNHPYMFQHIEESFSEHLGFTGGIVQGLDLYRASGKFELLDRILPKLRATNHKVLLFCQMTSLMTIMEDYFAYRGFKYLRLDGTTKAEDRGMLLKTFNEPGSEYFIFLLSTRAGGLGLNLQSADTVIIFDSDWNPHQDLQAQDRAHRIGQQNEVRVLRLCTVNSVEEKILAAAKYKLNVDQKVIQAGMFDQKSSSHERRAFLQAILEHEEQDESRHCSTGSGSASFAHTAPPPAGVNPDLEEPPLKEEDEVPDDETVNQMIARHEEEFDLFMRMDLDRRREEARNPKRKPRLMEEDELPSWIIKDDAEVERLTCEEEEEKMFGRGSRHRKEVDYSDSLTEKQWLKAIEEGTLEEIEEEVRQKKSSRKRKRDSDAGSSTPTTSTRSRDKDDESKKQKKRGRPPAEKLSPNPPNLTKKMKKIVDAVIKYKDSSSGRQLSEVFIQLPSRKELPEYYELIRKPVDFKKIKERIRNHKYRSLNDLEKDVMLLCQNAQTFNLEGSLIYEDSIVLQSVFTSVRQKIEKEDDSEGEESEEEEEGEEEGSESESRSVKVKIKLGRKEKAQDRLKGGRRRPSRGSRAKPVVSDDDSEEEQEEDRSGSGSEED
Sequence of SMARCA2 (P51531 whole entry, the tested form may be a part): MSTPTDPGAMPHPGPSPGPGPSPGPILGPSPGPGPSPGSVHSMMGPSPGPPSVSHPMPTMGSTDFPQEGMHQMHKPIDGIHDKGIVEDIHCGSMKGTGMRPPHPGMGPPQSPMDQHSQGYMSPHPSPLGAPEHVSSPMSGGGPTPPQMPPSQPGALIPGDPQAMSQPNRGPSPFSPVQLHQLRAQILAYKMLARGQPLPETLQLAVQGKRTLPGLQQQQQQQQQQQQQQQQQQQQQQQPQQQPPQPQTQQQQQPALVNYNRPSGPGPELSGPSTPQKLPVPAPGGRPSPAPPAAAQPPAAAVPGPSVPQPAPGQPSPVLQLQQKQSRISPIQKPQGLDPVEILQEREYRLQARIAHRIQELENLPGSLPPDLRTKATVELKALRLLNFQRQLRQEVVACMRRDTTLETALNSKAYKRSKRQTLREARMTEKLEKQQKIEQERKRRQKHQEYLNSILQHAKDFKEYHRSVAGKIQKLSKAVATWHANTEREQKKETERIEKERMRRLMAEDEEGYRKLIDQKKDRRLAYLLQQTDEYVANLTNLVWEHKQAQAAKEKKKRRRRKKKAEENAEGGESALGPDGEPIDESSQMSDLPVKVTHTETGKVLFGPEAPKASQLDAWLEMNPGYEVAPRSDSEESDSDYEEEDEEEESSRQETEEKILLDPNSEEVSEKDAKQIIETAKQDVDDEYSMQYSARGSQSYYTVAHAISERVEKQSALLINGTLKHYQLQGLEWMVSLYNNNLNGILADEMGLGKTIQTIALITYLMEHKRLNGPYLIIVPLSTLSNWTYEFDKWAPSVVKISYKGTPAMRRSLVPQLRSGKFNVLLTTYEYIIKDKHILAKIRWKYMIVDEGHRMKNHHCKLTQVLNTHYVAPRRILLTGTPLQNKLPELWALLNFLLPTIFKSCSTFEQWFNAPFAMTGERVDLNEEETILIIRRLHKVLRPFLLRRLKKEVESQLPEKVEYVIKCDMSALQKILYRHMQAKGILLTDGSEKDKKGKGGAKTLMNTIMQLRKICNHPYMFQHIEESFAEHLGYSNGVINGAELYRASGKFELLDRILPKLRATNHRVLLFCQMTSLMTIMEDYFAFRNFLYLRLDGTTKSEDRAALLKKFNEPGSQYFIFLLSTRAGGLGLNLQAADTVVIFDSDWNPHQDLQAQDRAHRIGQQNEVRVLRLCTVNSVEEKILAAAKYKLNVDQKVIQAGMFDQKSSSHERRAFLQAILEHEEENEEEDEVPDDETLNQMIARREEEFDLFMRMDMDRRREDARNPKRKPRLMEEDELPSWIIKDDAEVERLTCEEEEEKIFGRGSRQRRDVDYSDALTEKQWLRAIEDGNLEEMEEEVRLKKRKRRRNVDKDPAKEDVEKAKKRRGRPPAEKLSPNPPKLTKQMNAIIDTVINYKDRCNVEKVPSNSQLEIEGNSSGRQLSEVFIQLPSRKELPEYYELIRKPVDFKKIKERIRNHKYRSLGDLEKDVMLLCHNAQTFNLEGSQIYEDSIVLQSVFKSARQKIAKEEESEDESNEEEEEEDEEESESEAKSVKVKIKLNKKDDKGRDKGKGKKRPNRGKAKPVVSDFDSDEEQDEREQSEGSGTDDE

For the compound `Cc1ccccc1-c1ccc([C@H](CN2CCOCC2)NC(=O)[C@@H]2C[C@@H](O)CN2C(=O)[C@@H](n2cc([C@H]3CC[C@H](CN4CCC(c5ccc6c(c5)-n5c(nc(=O)c7c(Cl)cccc75)C65CCCCC5)CC4)CC3)nn2)C(C)(C)C)cc1` [Compound A163, (2S,4R)-1-((S)-2-(4-((1r,4S)-4-((4-(4′-chloro-5′-oxo-5′H-spiro[cyclohexane-1,7′-indolo[1,2-a]quinazolin]-10′-yl)piperidin-1-yl)methyl)cyclohexyl)-1H-1,2,3-triazol-1-yl)-3,3-dimethylbutanoyl)-4-hydroxy-N—((R)-1-(2′-methyl-[1,1′-biphenyl]-4-yl)-2-morpholinoethyl)pyrrolidine-2-carboxamide], on SMARCA4, the DC50 was 100 to 1000 nM and the greatest degradation seen (Dmax) fell in the range of 50 to 69%. On SMARCA2, the DC50 is < 10 nM and the Dmax is > 90%.
For `CC(C)(C)[C@@H](C(=O)N1C[C@H](O)C[C@H]1C(=O)N[C@@H](CN1CCOCC1)c1ccc(-c2ccccc2F)cc1)n1cc([C@H]2CC[C@H](CN3CCC(c4ccc5c(c4)-n4c(nc(=O)c6c(Cl)cccc64)C54CCCCC4)CC3)CC2)nn1` [Compound A164, (2S,4R)-1-((S)-2-(4-((1r,4S)-4-((4-(4′-chloro-5′-oxo-5′H-spiro[cyclohexane-1,7′-indolo[1,2-a]quinazolin]-10′-yl)piperidin-1-yl)methyl)cyclohexyl)-1H-1,2,3-triazol-1-yl)-3,3-dimethylbutanoyl)-N—((R)-1-(2′-fluoro-[1,1′-biphenyl]-4-yl)-2-morpholinoethyl)-4-hydroxypyrrolidine-2-carboxamide] the same measures were 100 to 1000 nM, 50 to 69%, < 10 nM and > 90%.
For `Cc1ncoc1-c1ccc([C@H](CN2CCOCC2)NC(=O)[C@@H]2C[C@@H](O)CN2C(=O)[C@@H](n2cc([C@H]3CC[C@H](CN4CCC(c5ccc6c(c5)-n5c(nc(=O)c7c(Cl)cccc75)C65CCCCC5)CC4)CC3)nn2)C(C)(C)C)cc1` [Compound A165, (2S,4R)-1-((S)-2-(4-((1r,4S)-4-((4-(4′-chloro-5′-oxo-5′H-spiro[cyclohexane-1,7′-indolo[1,2-a]quinazolin]-10′-yl)piperidin-1-yl)methyl)cyclohexyl)-1H-1,2,3-triazol-1-yl)-3,3-dimethylbutanoyl)-4-hydroxy-N—((R)-1-(4-(4-methyloxazol-5-yl)phenyl)-2-morpholinoethyl)pyrrolidine-2-carboxamide], in that order: > 1000 nM, < 50%, < 10 nM and > 90%.
Consider `Cc1nc(C)c(-c2ccc([C@H](CN3CCOCC3)NC(=O)[C@@H]3C[C@@H](O)CN3C(=O)[C@@H](n3cc([C@H]4CC[C@H](CN5CCC(c6ccc7c(c6)-n6c(nc(=O)c8c(Cl)cccc86)C76CCCCC6)CC5)CC4)nn3)C(C)(C)C)cc2)o1` [Compound A166, (2S,4R)-1-((S)-2-(4-((1r,4S)-4-((4-(4′-chloro-5′-oxo-5′H-spiro[cyclohexane-1,7′-indolo[1,2-a]quinazolin]-10′-yl)piperidin-1-yl)methyl)cyclohexyl)-1H-1,2,3-triazol-1-yl)-3,3-dimethylbutanoyl)-N—((R)-1-(4-(2,4-dimethyloxazol-5-yl)phenyl)-2-morpholinoethyl)-4-hydroxypyrrolidine-2-carboxamide], for which the DC50 at SMARCA4 was > 1000 nM; on SMARCA2, 10 to 100 nM. In addition, the Dmax at SMARCA4 was < 50%; on SMARCA2 it was 70 to 90%.

For the origin of these results see US20260092071A1, “COMPOUNDS AND COMPOSITIONS AS SMARCA2/4 DEGRADERS AND USES THEREOF” (REGENTS OF THE UNIVERSITY OF MICHIGAN, priority 2022, published 2026).
